According to ChEMBL document CHEMBL3259776, “Discovery and optimization of indazoles as potent and selective interleukin-2 inducible T cell kinase (ITK) inhibitors” (Bioorg Med Chem Lett, 2014):

Key:
[1] = target: T1, Tyrosine-protein kinase ITK/TSK (Homo sapiens, UniProt Q08881)
T1 sequence (Q08881 whole entry): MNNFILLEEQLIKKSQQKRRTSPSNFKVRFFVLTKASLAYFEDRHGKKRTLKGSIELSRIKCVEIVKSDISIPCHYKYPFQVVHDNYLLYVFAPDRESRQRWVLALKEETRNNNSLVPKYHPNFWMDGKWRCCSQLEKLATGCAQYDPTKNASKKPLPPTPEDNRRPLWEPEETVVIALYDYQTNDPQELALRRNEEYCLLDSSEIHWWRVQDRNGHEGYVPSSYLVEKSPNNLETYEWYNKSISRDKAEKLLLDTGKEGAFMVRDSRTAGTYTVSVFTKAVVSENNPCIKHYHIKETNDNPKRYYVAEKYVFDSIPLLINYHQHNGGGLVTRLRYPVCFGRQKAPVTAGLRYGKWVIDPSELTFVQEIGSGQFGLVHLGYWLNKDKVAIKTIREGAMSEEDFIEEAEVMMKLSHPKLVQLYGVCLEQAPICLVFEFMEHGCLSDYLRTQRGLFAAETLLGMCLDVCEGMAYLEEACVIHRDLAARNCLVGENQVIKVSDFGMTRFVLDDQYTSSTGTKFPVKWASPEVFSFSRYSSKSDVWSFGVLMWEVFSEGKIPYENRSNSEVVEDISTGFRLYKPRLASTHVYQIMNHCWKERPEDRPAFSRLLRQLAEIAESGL

[2] = Oral bioavailability in rat at 5 mg/kg; format: ADME, organism-based; details: in vivo
[3] = AUC in rat at 1 mg/kg, iv; format: ADME, organism-based; design: dose 1 mg/kg, route intravenous; details: plasma
[4] = Half life in rat at 1 mg/kg, iv; format: ADME, organism-based; design: dose 1 mg/kg, route intravenous; details: in vivo
[5] = Clearance in rat at 1 mg/kg, iv; format: ADME, organism-based; design: dose 1 mg/kg, route intravenous; details: in vivo
[6] = Lipophilicity, log D of the compound at pH 7.4; details: buffer
[7] = Half life in rat at 5 mg/kg, po; format: ADME, organism-based; design: dose 5 mg/kg, route oral; details: in vivo

Row | Ki [1] [nM] | bioavailability [2] [%] | AUC [3] [µM·h] | half-life [4] [h] | clearance [5] [mL/min/kg] | logD [6] | half-life [7] [h] | Compound
1 | > 4 | – | – | – | – | – | – | O=C(Nc1ncc(Cc2ccccc2)s1)c1n[nH]c2ccccc12
2 | > 4 | – | – | – | – | – | – | O=C(Nc1ncc(Cc2ccccc2)o1)c1n[nH]c2ccccc12
3 | – | 0 | 0.837 | 5.7 | 44 | – | – | CN(C)CC[C@@H](c1ccccc1)n1cc(NC(=O)c2n[nH]c3cc(-c4cn[nH]c4)ccc23)cn1
4 | – | 9 | 2.5 | 1.8 | 11 | 3.4 | 2.6 | CC(C)(O)[C@@H](c1ccccc1)n1cc(NC(=O)c2n[nH]c3cc(-c4cn[nH]c4)ccc23)cn1
